Our source for the IC50 values is US10889555B2, “Sulfonamide compound or salt thereof” (Taiho Pharmaceutical Co., Ltd., priority 2016, dated 2021).

For test [1], the target named is Human RNR (human M1 subunit and human M2 subunit) (Homo sapiens (Human), UniProt P23921). Nature of the test: Human RNR inhibition effect (formation of dCDP from CDP, HPLC). In kind it is biochemical. As to the method: The inhibitory activity against the ribonucleotide reduction reaction (hereinafter referred to as RNR reaction) of the test compound was determined by measuring the formation of deoxycytidine diphosphate (hereinafter referred to as dCDP) from cytidine diphosphate (hereinafter referred to as CDP) by the following method.
Sequence of Human RNR (human M1 subunit and human M2 subunit) (P23921 whole entry, the tested form may be a part): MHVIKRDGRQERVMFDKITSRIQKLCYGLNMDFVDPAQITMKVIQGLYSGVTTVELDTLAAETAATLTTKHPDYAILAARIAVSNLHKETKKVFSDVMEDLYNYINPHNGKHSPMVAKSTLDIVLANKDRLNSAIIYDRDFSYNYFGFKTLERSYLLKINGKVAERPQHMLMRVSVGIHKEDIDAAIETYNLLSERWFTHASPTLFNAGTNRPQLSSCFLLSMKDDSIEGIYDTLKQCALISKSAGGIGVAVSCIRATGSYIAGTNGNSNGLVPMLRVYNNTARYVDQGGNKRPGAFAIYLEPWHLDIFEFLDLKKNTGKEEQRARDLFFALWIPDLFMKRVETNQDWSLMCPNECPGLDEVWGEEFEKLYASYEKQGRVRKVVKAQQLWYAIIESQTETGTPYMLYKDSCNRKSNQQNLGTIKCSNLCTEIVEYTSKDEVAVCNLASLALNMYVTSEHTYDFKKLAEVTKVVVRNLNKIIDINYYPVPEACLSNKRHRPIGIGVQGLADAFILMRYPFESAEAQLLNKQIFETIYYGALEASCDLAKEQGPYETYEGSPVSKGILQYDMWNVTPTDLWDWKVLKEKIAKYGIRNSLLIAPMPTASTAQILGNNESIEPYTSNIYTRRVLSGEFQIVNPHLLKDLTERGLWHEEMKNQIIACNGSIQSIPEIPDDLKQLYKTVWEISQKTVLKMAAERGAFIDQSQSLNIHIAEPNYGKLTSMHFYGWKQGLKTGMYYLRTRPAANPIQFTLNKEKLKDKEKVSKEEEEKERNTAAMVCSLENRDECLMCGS
Human M1 subunit and human M2 subunit (mutant lacking amino terminal 59 amino acids), which are fused a histidine tag at the amino terminus, are overexpressed in Escherichia coli and are solubilized after collection, and histidine tagged human M1 and M2 proteins were purified on a nickel chelate column.
First, test compounds were serially diluted with DMSO. Next, human M1 protein and human M2 protein were added to an aqueous albumin solution derived from 0.02% fetal bovine serum, a DMSO solution of the compound of the present invention or the control DMSO solution (final concentration of DMSO was 1%) was added, and the mixture was allowed to stand for 20 minutes. Thereafter, the reaction buffer [50 mM HEPES buffer (pH 7.2) at the final concentration, 4 mM magnesium acetate at the final concentration, 100 mM potassium chloride at the final concentration, 6 mM dithiothreitol at the final concentration, 2 mM adenosine triphosphate at the final concentration, 0.24 mM nicotinamide adenine dinucleotide phosphate at final concentration] and 10 μM CDP at the final concentration were added and incubated at 37° C. for 30 minutes to perform RNR reaction. Immediately after the reaction, the reaction was stopped by heating at 100° C. for 15 minutes, followed by centrifugation at 10,000 rpm for 10 minutes. After the centrifugation, a portion (5 μL) of the resulting supernatant was analyzed with a high performance liquid chromatography (Shimadzu Corporation, Prominence) using Shim-pack XR-ODS (manufactured by Shimadzu GLC Co., 3.0×100 mm).

Another test relates to HCC 1806 cells. The test can be described thus: Cell proliferation inhibitory effect on human breast cancer cell line (crystal violet, 72 hours). In kind it is cell-based. The note with it: Homo sapiens, HCC1806, 72 h, read-out: Cell growth suppression IC50. An outline of the steps: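 Cells were seeded at 2,000/well in RPMI-1640 with 10% FBS and grown 1 day, then exposed to compound for 72 h at 37° C, 5% CO2. After glutaraldehyde fixation and 0.05% crystal violet staining, extracted dye was read at 540 nm. IC50 (μM) came from growth inhibition relative to untreated and cell-free wells.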

The mark [2] stands for this setting: human M1 and M2 subunits, formation of dCDP from CDP, read-out: RNR Enzyme inhibitory activity IC50.

Like-named read-outs stand apart in the source and are kept apart here.

As for `Cc1ccc(F)c([C@@H](C)[C@H](NS(=O)(=O)c2ccc(C(F)(F)F)c3c2OCCC3(C)O)c2n[nH]c(=O)o2)c1C` (single isomer, unassigned) [Example 225A], the IC50 is 120 nM in test [1] (setting [2]) and 600 nM in the test with HCC 1806 cells.

Consider `Cc1ccc(S(=O)(=O)NC(Cc2ccccc2)c2nnc(S)o2)cc1` (stereo not shown) [Comparative Example 1, reference compound], for which the IC50 in test [1] (human M1 and M2 proteins, 10 μM CDP, 37° C. for 30 minutes, read-out: IC50 (concentration inhibiting the RNR reaction by 50%)) is 43000 nM.

Regarding `COc1cc(Cl)ccc1S(=O)(=O)N[C@H](c1n[nH]c(=O)o1)[C@H](C)c1c(F)ccc(-c2ccn(C)n2)c1C` [Example 305, 4-chloro-N-((1S,2R)-2-(6-fluoro-2-methyl-3-(1-methyl-1H-pyrazol-3-yl)phenyl)-1-(5-oxo-4,5-dihydro-1,3,4-oxadiazol-2-yl)propyl)-2-methoxybenzenesulfonamide], the IC50 in test [1] (setting [2]) came to 240 nM.
